According to publication PMC9436819 (JACC: Basic to Translational Science, 2022):

What was measured:
[1] = tested on: healthy adults; experiment: Safety echocardiograms assessed by study cardiologist (AEs of decreased LVEF); assay type: in vivo, human; settings: for LVEF deemed AE (decreased ejection fraction <45%): study cardiologist
Excerpt: Recommendations regarding dose escalation in the SAD cohorts—and in the MAD cohorts described in the next section—were made by the treating investigator (who was blinded to treatment group) and endorsed or not by the Dose Level Review Committee (DLRC), the members of which were unblinded. […] Criteria for escalation included that no more than 2 participants in a dose group developed an LVEF of <50% and that no individual developed an LVEF of <45%; escalation criteria are given in full in the Supplemental Appendix. For safety monitoring, participants in all cohorts had periodic echocardiograms, which were assessed by a cardiologist. In the SAD and MAD cohorts, echocardiograms were also reviewed by an echocardiography core laboratory for PD assessments, as described in the section on echocardiographic methods. In addition, participants in all cohorts were monitored with continuous 12-lead ECG recording using Holter monitors. For safety monitoring, a single 12-lead ECG was extracted at screening, predose, and periodically throughout follow-up and interpreted by the investigator. In the SAD, MAD, and CYP2D6-PM cohorts, cardiodynamic ECGs (triplicate 10-second, 12-lead ECG recordings) were obtained before the corresponding PK blood sample (see the Supplemental Appendix for full details on blood sampling), and ECG intervals were quantitated by qualified readers.

[2] = tested on: healthy adults; experiment: Echocardiography (core laboratory) pharmacodynamics, MAD cohorts; assay type: in vivo, human
Procedure: The MAD cohorts also used a randomized, double-blind, placebo-controlled, sequential design.
For PD assessments of LVEF, echocardiograms for the SAD and MAD cohorts were interpreted by the echocardiography core laboratory and used for all data analysis and dose-level review decisions, and immediate local interpretation of the echocardiograms was performed for safety monitoring. […] Echocardiograms on day 3 (48 hours after dosing) were obtained only if the 24-hour LVEF had not returned to near or above baseline, as determined by the investigator. In the MAD cohorts, echocardiograms were obtained on day -1; predose on day 1; at 1.5 hours postdose on days 2, 4, and 9; and at 1.5, 24, and 72 hours postdose on day 14 (for the 5-mg and 10-mg cohorts) or on day 17 (for the 7.5-mg cohort). Echocardiograms were obtained 3 days after the last dose (on day 17 or 20) only if the participant’s prior LVEF was not near or above baseline, as determined by the investigator.
Using echocardiography instrumentation certified for clinical use, echocardiographic images were obtained from standard views based on American Society of Echocardiography recommendations for chamber quantification.[19] To obtain the LVEF, the endocardial borders of 3 different cardiac cycles were traced at both end diastole and end systole from the apical 4- and 2-chamber views and LV end-diastolic volume (LVEDV) and LV end-systolic volume (LVESV), calculated using the Simpson’s method of discs algorithm. Ejection fraction was calculated in the standard manner: LVEF = (LVEDV − LVESV)/LVEDV. The intraobserver variability (coefficient of variation) for LVEF was 8%.
All participants who received ≥1 dose of the study drug and had ≥1 predose and ≥1 postdose echocardiographic measurements were included in the PD analysis set. […] Descriptive statistics of the echocardiographic parameters were generated using SAS, version 9.3 or higher. Dose-response analysis was performed using analysis of covariance to identify the least-squares mean difference (aficamten minus placebo), as described in the Supplemental Appendix. Analyses of concentration “bin” and exposure-response were also performed using analysis of covariance, as described in the Supplemental Appendix. SAS PROC MIXED was used for all comparative analyses.
Statistical A nalysis of P harmacodynamic (PD) P aram eters
To analyze the impact of drug dose on echocardiographic parameters in the SAD and MAD
cohorts, an inferential analysis was conducted on t he PD analysis set using linear mixed models
for rep eated -measur es an alysis of covarian ce ( AN COVA). The A NCOVA used baseline valu e as
a covariate, included treatment, time-point, and time-point-by- treatment interaction as fixed
effects, and ch ange f rom baseline as the d ependent variable. Th e unstructur ed varian ce-
covarian ce structu re w as used, and the model acco unted for the time- point r epeated m easur es.
The ANCOVA analysis was conducted separately for each study part and f or each PD p aram eter .
The least-squares means, the difference in least squares means (active minus placebo), and the
associated 2-sided 95% CIs were presented for each comparison.
Concentration bin analysis
An additional inferential analysis was performed i n the SAD and MAD cohorts , to evaluate the
analysis set. A concentrat ion bin ANCOVA was conducted using linear mi xed models for
repeat ed-measures an aly ses with concentr ation bin group as a fix ed ef fect, baseline PD
parameters as a covari ate, change f rom baseline as the dependent v ariable, and a random
intercept to adjust for the repeat ed measures. The unstructured variance-co variance structur e was
used.Plasma concentr ations of aficamten wer e paired with coincident PD parameters. The
ANCOVA compared the change in PD parameters between each bin versus the pooled placebo
group. The least-squ ares means, the differen ce in l east squares m eans (bin group minus placebo), […]

[3] = SAD 40 mg, one participant, 6 h after drug dose
[4] = SAD 50 mg, one participant, 4 h after drug dose
[5] = SAD 75 mg, single participant, 4 h after drug dose

CCc1nc(-c2ccc3c(c2)CC[C@H]3NC(=O)c2cnn(C)c2)no1 [Aficamten]
Participants with echocardiogram-related AEs of decreased LVEF of <45% ([1]; 1 each in SAD 40-mg, 50-mg, and 75-mg cohorts): 3 participants | AEs of decreased ejection fraction of <45% ([1]; MAD, CYP2D6-PM, and food-effect cohorts): no echocardiographic AEs | Grade of AE of decreased ejection fraction ([1]; SAD 40 mg, one participant): 1 (mild) | Onset of AE of decreased ejection fraction (time after drug dose) ([1]; SAD 40 mg, one participant): 1.4 h | LVEF recorded at resolution of AE [1, 3]: 58.4% | Time from onset to resolution of AE of decreased ejection fraction [1, 3]: 4.6 h | LVEF deemed AE (decreased ejection fraction <45%) ([1]; SAD 40 mg, one participant): 42.2% | Decrease in LVEF of 1 participant after cohort expansion ([1]; SAD 50 mg): > 15% | LVEF of 1 participant after cohort expansion ([1]; SAD 50 mg): < 45% | Postdose LVEF of 1 participant (<50%) ([1]; SAD 50 mg, initial cohort): 46.2% | Grade of AE of decreased ejection fraction ([1]; SAD 50 mg, one participant): 1 (mild) | Onset of AE of decreased ejection fraction (time after drug dose) ([1]; SAD 50 mg, one participant): 1.5 h | LVEF recorded at resolution of AE [1, 4]: 50.2% | Time from onset to resolution of AE of decreased ejection fraction [1, 4]: 2.5 h | LVEF deemed AE (decreased ejection fraction <45%) ([1]; SAD 50 mg, one participant): 42.1% | Postdose LVEF of the sentinel participant ([1]; SAD 75 mg): < 45% | Reduction in LVEF of the single participant ([1]; SAD 75 mg, […] postdose): 31.5% | Grade of AE of decreased ejection fraction ([1]; SAD 75 mg, single participant): 1 (mild) | Onset of AE of decreased ejection fraction (time after drug dose) ([1]; SAD 75 mg, single participant): 1.5 h | LVEF recorded at resolution of AE [1, 5]: 51.9% | Time from onset to resolution of AE of decreased ejection fraction [1, 5]: 2.5 h | LVEF deemed AE (decreased ejection fraction <45%) ([1]; SAD 75 mg, single participant, […] postdose): 34.6% | Time to resolution of AEs of decreased LVEF (next echocardiogram assessment) ([1]; SAD 40, 50, 75 mg): 2.5 to 4.6 h | Participants with absolute reduction in LVEF of ≥5% from baseline ([2]; MAD 7.5 mg once daily, 1 of 6): 17% | Participants with absolute reduction in LVEF of ≥10% from baseline ([2]; MAD 10 mg once daily): 33% | Participants with reduction in LVEF ≥10% ([2]; MAD 10 mg once daily): 2 participants | Participants who met the stopping criteria based on echocardiography results ([2]; MAD 10 mg once daily for 14 days): 2 participants | Placebo-corrected reduction in LVEF (least-squares mean difference) ([2]; MAD 10 mg once daily for 14 days, […] postdose on day 14, P = 0.21): 3.2% | Participants with absolute reduction in LVEF of ≥5% from baseline ([2]; MAD 10 mg once daily, 2 of 6): 33% | Largest mean reduction in LVEF from baseline ([2]; MAD 10 mg, […] postdose on day 14): 5.0% | Suppression of LVEF in most participants ([2]; MAD cohorts, plasma concentrations of ≤180 ng/mL): minimal suppression of LVEF | Relationship of LVEF to plasma concentration ([2]; MAD cohorts, bin concentration analysis or linear regression analysis): did not reach statistical significance | Reduction in LVEF to <50% ([2]; any of the MAD cohorts, per core laboratory assessment): not observed
